Laboratory results reported in patent publication US20100204111A1 (priority 2007, published 2010).
Bridges are numbered along the chain shown (N, C = ends). Where no end group is shown, it is not given here. [ ]: non-standard residue; d: D form. Nle = CCCC[C@H](N)C(=O)O

Tests used:
[1] = system: hepatitis B virus (HBV) ayw strain; assay type: cell-based; details: 10 micrograms per ml; HepG2-2.2.15 cells; six days
[2] = system: HCMV strain AD169; assay type: cell-based; details: MRC-5 cells
[3] = system: Human Peripheral Blood Mononuclear Cells (PBMC), B cell proliferation; experiment: B Cell Proliferation Assay (SAC plus Interleukin-2, 3H-thymidine); assay type: cell-based; details: 10 micrograms per ml; SAC plus Interleukin-2 stimulated PBMC; combination: 0.95 mole peptide 1 and 1.05 mole peptide 2
Experimental: Human Peripheral Blood Mononuclear Cells (PBMC) were obtained from normal human donors. […] 10^5/well PBMC were plated in 96-well microtiter plates and assayed in duplicate with the peptides. […] At the end of incubation time, the plates were harvested and the cells counted by liquid scintillation for the incorporation of ^3H-thymidine as a measure of B cell proliferation.

[4] = system: Tumor Necrosis Factor-α (TNF-α); experiment: Th1/Th2 Cytokine Profiling Assay: TNF-α; assay type: cell-based, Balb/c mice; details: 10 micrograms per ml; Ovalbumin-restimulated Balb/c spleen cells; 72 hours
Experimental: (§1) On day 50, spleens of the mice were harvested (3 weeks after last boost with Ovalbumin). […] Thereafter, additional Ovalbumin was added to the cells at 10 micrograms/ml for in vitro restimulation of the cells. 72 hours later, cell supernatants were harvested and assayed using the Becton Dickinson Mouse Th1/Th2 Cytokine CBA Kit. This kit can be used to measure Interleukin-2 (IL-2), Interleukin-4 (IL-4), Interleukin-5 (IL-5), Interferon-γ (IFN-γ), and Tumor Necrosis Factor-α (TNF-α) protein levels in a single sample.

[5] = system: Interferon-γ (IFN-γ); experiment: Th1/Th2 Cytokine Profiling Assay: IFN-γ; assay type: cell-based, Balb/c mice; details: 10 micrograms per ml; Ovalbumin-restimulated Balb/c spleen cells; 72 hours
Experimental: as §1

[6] = system: Interleukin-2 (IL-2); experiment: Th1/Th2 Cytokine Profiling Assay: IL-2; assay type: cell-based, Balb/c mice; details: 10 micrograms per ml; Ovalbumin-restimulated Balb/c spleen cells; 72 hours
Experimental: as §1

[7] = system: Interleukin-4 (IL-4); experiment: Th1/Th2 Cytokine Profiling Assay: IL-4; assay type: cell-based, Balb/c mice; details: 10 micrograms per ml; Ovalbumin-restimulated Balb/c spleen cells; 72 hours
Experimental: as §1

[8] = system: Interleukin-5 (IL-5); experiment: Th1/Th2 Cytokine Profiling Assay: IL-5; assay type: cell-based, Balb/c mice; details: 10 micrograms per ml; Ovalbumin-restimulated Balb/c spleen cells; 72 hours
Experimental: as §1

[9] = system: Primary Human endothelial cells (HUVEC); experiment: Endothelial Cell Migration Assay; assay type: cell-based; details: 10 micrograms per ml, 22 hours, combination peptide 1:peptide 2 0.95 mole:1.05 mole
Experimental: Primary Human endothelial cells (HUVEC) were seeded in insert chambers with 3 micrometer pore size of multi-transwell plate for 6 hours at 37° C. in Endothelial Cell Basal Medium (EBM) supplemented with 0.1% bovine serum albumin. […] Images of 3 fields per insert were taken and the number of migrated cells per field were quantified using the ImageProPlus software. Data were analyzed for the average number of the migrated cells and standard deviation of six data points for each treatment condition. […] Statistic p values were computed using the Student's t-test.

[10] = system: HUVEC; experiment: Endothelial Tube Formation Assay; assay type: cell-based, human; details: 10 micrograms per ml, 20 hours, combination peptide 1:peptide 2 0.95 mole:1.05 mole
Experimental: The endothelial tube formation assay is based on the ability of endothelial cells to form three-dimensional capillary-like tubular structures when cultured on a gel of basement membrane extract. The endothelial tube formation assay represents a powerful model for studying inhibition and induction of angiogenesis. […] Positive control was vehicle only. The endothelial cells were allowed to form tubes foe 20 hours and were then examined under an inverted fluorescent microscope. Duplicate wells for each treatment were photographed and quantitatevily analyzed for an average tubule length using image analysis software ImageProPlus. Raw data were expressed as average tubule lengths in pixels ±standard deviation. Statistic p values were computed using the Student's t-test.

[11] = system: HIV-1IIIB; experiment: HIV-1 antiviral assay in CEM-SS cells; assay type: cell-based

Tyr-Gly-Gly-Phe-Met-Thr-Ser-Glu-Lys-Ser-Gln-Thr-Pro-Leu-Val-Thr-Leu-Phe-Lys-Asn-Ala-Ile-Ile-Lys-Asn-Ala-Tyr-Lys-Lys-Gly-Glu-OH [Peptide 2]
inhibition of HBV replication on tested liver cells [1]: no effect
inhibition of HCMV plaque formation as compared to the virus control ([2]; 10 micrograms per ml, 7-10 days): did not inhibit
induction of the proliferation of specifically stimulated human B-cells [3]: 22.7%
TNF-a spleen cells; TH1 response (% of control) [4]: 110.7 % of control
IFNγ spleen cells; TH1 response (% of control) [5]: 106.6 % of control
IL-2 spleen cells (% of control) [6]: 163.9 % of control
IL-4 spleen cells; TH2 response (% of control) [7]: 100.6 % of control
IL-5 spleen cells; TH2 response (% of control) [8]: 103.3 % of control
inhibition of the migration of human endothelial cells [9]: 29%
inhibition of the tube formation of endothelial cells [10]: 38%

[dF]HLLREVLE[Nle]ARAEQLAQEAHKNRKL[Nle]EII-NH2 (lactam 19-22) [Peptide 1]
induction of the proliferation of specifically stimulated human B-cells [3]: 11.1%
TNF-a spleen cells; TH1 response (% of control) [4]: 120.0 % of control
IFNγ spleen cells; TH1 response (% of control) [5]: 137.6 % of control
IL-2 spleen cells (% of control) [6]: 210.4 % of control
IL-4 spleen cells; TH2 response (% of control) [7]: 114.4 % of control
IL-5 spleen cells; TH2 response (% of control) [8]: 90.1 % of control
inhibition of the migration of human endothelial cells [9]: 13%
inhibition of the tube formation of endothelial cells [10]: 31%

CC(C)(C)NC(=O)[C@@H]1CN(Cc2cccnc2)CCN1C[C@@H](O)C[C@@H](Cc1ccccc1)C(=O)N[C@H]1c2ccccc2C[C@H]1O [indinavir]
antiviral activity (positive control compounds) [11]: expected levels of antiviral activity

Nc1nc(O)c2ncn(COC(CO)CO)c2n1 [Ganciclovir, reference compound]
antiviral activity (positive control compound) ([2]; positive control, HCMV AD169): expected levels of antiviral activity

Cc1cn([C@H]2C[C@H](N=[N+]=[N-])[C@@H](CO)O2)c(=O)[nH]c1=O [AZT]
antiviral activity (positive control compounds) [11]: expected levels of antiviral activity
